The IC50 is the midpoint of a concentration-inhibition curve. A lower IC50 goes with higher potency.

This experiment has as its target T1, GST-tagged GDP-loaded KRAS G12V (amino acids 1-169) (Homo sapiens, UniProt P01116, G12V).
T1 construct: GST-tagged GDP-loaded KRAS G12V (amino acids 1-169); made in house; host or cells: E. coli
The experiment can be described thus: KRAS G12V probe displacement assay (TR-FRET). The format is binding. The conditions noted are these: displacement of biotinylated probe 2 from GDP-loaded KRAS G12V. The procedure, abridged: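 GST-tagged GDP-loaded KRAS 1-169 (WT 3 nM; G12V 2 nM final) preincubated 1 h at 24 °C with serially diluted compound in HEPES pH 7.5 buffer, then biotinylated probe added (probe 1 60 nM for WT; probe 2 2.5 nM for G12V), 1 h. Anti-GST-Tb/streptavidin-XL665 TR-FRET 665/620 ratio; IC50 by four-parameter fit.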

T1 sequence (P01116 1-169 isoform P01116-2 G12V): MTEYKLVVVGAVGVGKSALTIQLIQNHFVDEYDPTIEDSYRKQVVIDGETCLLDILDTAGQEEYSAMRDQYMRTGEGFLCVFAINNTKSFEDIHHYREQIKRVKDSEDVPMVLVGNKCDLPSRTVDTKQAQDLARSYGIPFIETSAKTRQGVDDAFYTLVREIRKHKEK

`Nc1nc2c(-c3c(C(F)(F)F)cc4c(N5CC[C@H](O)C5)nc(OC[C@@]56CCCN5C[C@H](F)C6)nc4c3F)ccc(F)c2s1` [Example 64, (3S)-1-(7-(2-amino-7-fluorobenzo[d]thiazol-4-yl)-8-fluoro-2-(((2R,7aS)-2-fluorotetrahydro-1H-pyrrolizin-7a(5H)-yl)methoxy)-6-(trifluoromethyl)quinazolin-4-yl)pyrrolidin-3-ol] showed a 50% inhibitory concentration (IC50) of 4.3 nM.

Compound `Nc1nc2c(-c3c(C(F)(F)F)cc4c(N5CCC(O)CC5)nc(OC[C@@]56CCCN5C[C@H](F)C6)nc4c3F)ccc(F)c2s1` [Example 78, 1-(7-(2-amino-7-fluorobenzo[d]thiazol-4-yl)-8-fluoro-2-(((2R,7aS)-2-fluorotetrahydro-1H-pyrrolizin-7a(5H)-yl)methoxy)-6-(trifluoromethyl)quinazolin-4-yl)piperidin-4-ol] displayed an IC50 of 3.3 nM.

Compound `Nc1nc2c(-c3c(C(F)(F)F)cc4c(N5CCC6(CC5)CN(CC5CC5)C(=O)O6)nc(OC[C@@]56CCCN5C[C@H](F)C6)nc4c3F)ccc(F)c2s1` [Example 92, 8-(7-(2-amino-7-fluorobenzo[d]thiazol-4-yl)-8-fluoro-2-(((2R,7aS)-2-fluorotetrahydro-1H-pyrrolizin-7a(5H)-yl)methoxy)-6-(trifluoromethyl)quinazolin-4-yl)-3-(cyclopropylmethyl)-1-oxa-3,8-diazaspiro[4.5]decan-2-one] came in with an IC50 of 2.8 nM.

`CC1CC1Nc1nc(OC[C@@]23CCCN2C[C@H](F)C3)nc2c(F)c(-c3ccc(F)c4sc(N)nc34)c(C(F)(F)F)cc12` (stereo partly drawn) [Example 3, 7-fluoro-4-(8-fluoro-2-(((2R,7aS)-2-fluorotetrahydro-1H-pyrrolizin-7a(5H)-yl)methoxy)-4-((2-methylcyclopropyl)amino)-6-(trifluoromethyl)quinazolin-7-yl)benzo[d]thiazol-2-amine] displayed an IC50 of 6.2 nM.

For `N#C[C@H]1C[C@@H](Nc2nc(OC[C@@]34CCCN3C[C@H](F)C4)nc3c(F)c(-c4ccc(F)c5sc(N)nc45)c(C(F)(F)F)cc23)C1` [Example 18, (cis)-3-((7-(2-amino-7-fluorobenzo[d]thiazol-4-yl)-8-fluoro-2-(((2R,7aS)-2-fluorotetrahydro-1H-pyrrolizin-7a(5H)-yl)methoxy)-6-(trifluoromethyl)quinazolin-4-yl)amino)cyclobutane-1-carbonitrile], the IC50 worked out at 13 nM.

Compound `Nc1nc2c(-c3c(C(F)(F)F)cc4c(NC5C6CCCC65)nc(OC[C@@]56CCCN5C[C@H](F)C6)nc4c3F)ccc(F)c2s1` (stereo partly drawn) [Example 8, 4-(4-(bicyclo[3.1.0]hexan-6-ylamino)-8-fluoro-2-(((2R,7aS)-2-fluorotetrahydro-1H-pyrrolizin-7a(5H)-yl)methoxy)-6-(trifluoromethyl)quinazolin-7-yl)-7-fluorobenzo[d]thiazol-2-amine] had a 50% inhibitory concentration (IC50) of 43 nM.

Compound `Nc1cc(Cl)c(C(F)(F)F)c(-c2ncc3c(N4CCO[C@H](CO)C4)nc(OC[C@@]45CCCN4C[C@H](F)C5)nc3c2F)c1` [Example 120, ((2S)-4-(7-(5-amino-3-chloro-2-(trifluoromethyl)phenyl)-8-fluoro-2-((2-fluorotetrahydro-1H-pyrrolizin-7a(5H)-yl)methoxy)pyrido[4,3-d]pyrimidin-4-yl)morpholin-2-yl)methanol] yielded an IC50 of 6.6 nM.

`Nc1nc2c(-c3c(C(F)(F)F)cc4c(N5CCC6(CCNC(=O)O6)CC5)nc(OC[C@@]56CCCN5C[C@H](F)C6)nc4c3F)ccc(F)c2s1` [Example 99, 9-(7-(2-amino-7-fluorobenzo[d]thiazol-4-yl)-8-fluoro-2-(((2R,7aS)-2-fluorotetrahydro-1H-pyrrolizin-7a(5H)-yl)methoxy)-6-(trifluoromethyl)quinazolin-4-yl)-1-oxa-3,9-diazaspiro[5.5]undecan-2-one] displayed an IC50 of 2.8 nM.

(Values after US20250101028A1, “HETEROCYCLIC COMPOUNDS, COMPOSITIONS THEREOF, AND METHODS OF TREATMENT THEREWITH” (BeiGene, Ltd., priority 2022, published 2025).)
